Calls of active or inactive are those of the source.
Tests used:
[1] = biological target: T1, Long-chain-fatty-acid--AMP ligase FadD28 (Mycobacterium tuberculosis, UniProt P9WQ59); experiment: Fluorescence polarization aasay to screen for inhibitors that compete for the binding of FadD28 to a bisubstrate Measured in Biochemical System Using Plate Reader - 2147-01_Inhibitor_Dose_CherryPick_Activity.; type: functional, Mycobacterium tuberculosis H37Rv
T1 sequence (P9WQ59 whole entry): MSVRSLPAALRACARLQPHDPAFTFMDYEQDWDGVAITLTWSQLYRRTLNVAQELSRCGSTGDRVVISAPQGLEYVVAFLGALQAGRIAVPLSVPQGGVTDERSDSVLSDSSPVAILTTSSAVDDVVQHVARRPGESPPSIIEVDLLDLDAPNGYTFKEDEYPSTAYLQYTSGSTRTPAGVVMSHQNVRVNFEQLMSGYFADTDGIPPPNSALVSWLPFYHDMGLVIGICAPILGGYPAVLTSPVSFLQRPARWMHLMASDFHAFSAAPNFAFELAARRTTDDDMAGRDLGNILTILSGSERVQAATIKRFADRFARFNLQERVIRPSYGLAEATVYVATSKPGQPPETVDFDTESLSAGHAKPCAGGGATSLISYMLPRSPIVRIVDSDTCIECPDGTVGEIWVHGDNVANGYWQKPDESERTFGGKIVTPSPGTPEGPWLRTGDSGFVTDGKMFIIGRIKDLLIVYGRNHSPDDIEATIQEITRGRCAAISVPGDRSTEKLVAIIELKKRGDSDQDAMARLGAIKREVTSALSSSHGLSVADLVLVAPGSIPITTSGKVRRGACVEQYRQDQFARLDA

[2] = HepG2 cell cytotoxicity, dose response, cytotoxicity control for Shn3 inhibitor project, CellTiter-Glo, cherry-picked (AID 624134); type: functional, cell-based
cells [3] = type: functional, cell-based; details: HEK-CNG
[4] = Shn3 3'UTR reporter inhibitors, dose response, cell-based, Clone20 osteoblasts, firefly luciferase, cherry-picked (AID 624132); type: functional;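 note: firefly luciferase luminescence from reporter carrying the Shn3 3'UTR in osteoblasts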
[5] = control 3'UTR Renilla luciferase suppression, dose response, counter-screen for Shn3 inhibitor project, cell-based, Clone20-Shn3RL, cherry-picked (AID 624133); type: functional
Galanin receptor type 3 = biological target: T2, Galanin receptor type 3 (Homo sapiens, UniProt O60755); experiment: Fluorescence-based cell-based primary high throughput dose response assay to identify antagonists of the Galanin Receptor 3 (GalR3).; type: functional
T2 sequence (O60755 whole entry): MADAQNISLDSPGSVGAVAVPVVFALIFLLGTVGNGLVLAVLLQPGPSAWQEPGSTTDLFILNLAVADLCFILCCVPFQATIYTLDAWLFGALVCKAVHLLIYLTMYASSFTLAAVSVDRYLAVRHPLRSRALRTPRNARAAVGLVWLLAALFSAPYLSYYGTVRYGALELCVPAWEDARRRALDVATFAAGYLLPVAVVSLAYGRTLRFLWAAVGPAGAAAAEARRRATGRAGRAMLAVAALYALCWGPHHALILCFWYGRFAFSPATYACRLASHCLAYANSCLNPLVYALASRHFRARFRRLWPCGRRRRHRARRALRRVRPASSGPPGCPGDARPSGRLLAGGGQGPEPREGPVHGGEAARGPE

[6] = cytotoxicity in HEK-293T cells, dose response, cytotoxicity control for TCR NF-kB inhibitor project, luminescence, T-cell screen hits (AID 489026); type: functional, cell-based;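 note: cells exposed to compound about 14 hours before the viability readout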
Beta-galactosidase = Beta-galactosidase (Escherichia coli, UniProt Q8VNN2); experiment: Dose response counterscreen for EBI2 assay utilizing the enzyme, b-galactosidase.; type: functional
[7] = biological target: T3, Corticotropin-releasing factor receptor 2/Corticotropin-releasing factor-binding protein (Homo sapiens, UniProt P24387+Q13324); experiment: Dose Response confirmation of uHTS hits for small molecule antagonists of the CRF-binding protein and CRF-R2 receptor complex.; type: functional; details: read-out: IC50_Mean
T3 sequence (Q13324 whole entry): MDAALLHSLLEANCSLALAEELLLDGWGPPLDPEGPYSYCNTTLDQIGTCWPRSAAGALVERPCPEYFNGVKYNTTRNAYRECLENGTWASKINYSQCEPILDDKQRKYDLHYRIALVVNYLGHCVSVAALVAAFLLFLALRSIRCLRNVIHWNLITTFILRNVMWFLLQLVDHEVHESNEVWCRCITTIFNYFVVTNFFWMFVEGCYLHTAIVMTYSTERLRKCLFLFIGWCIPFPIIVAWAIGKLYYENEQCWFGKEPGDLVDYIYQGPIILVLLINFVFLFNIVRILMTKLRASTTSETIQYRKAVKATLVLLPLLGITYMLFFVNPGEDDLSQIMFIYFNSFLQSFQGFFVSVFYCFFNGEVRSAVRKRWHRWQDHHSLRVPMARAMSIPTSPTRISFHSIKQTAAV
T3 sequence (P24387 whole entry): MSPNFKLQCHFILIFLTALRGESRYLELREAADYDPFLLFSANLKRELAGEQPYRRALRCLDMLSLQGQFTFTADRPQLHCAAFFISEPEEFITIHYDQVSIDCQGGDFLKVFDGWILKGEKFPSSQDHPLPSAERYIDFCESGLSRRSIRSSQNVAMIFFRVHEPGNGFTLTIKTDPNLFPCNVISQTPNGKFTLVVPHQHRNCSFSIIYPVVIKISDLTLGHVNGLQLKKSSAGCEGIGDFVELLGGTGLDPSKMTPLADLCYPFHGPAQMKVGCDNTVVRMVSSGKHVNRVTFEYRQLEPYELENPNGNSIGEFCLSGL

[8] = biological target: T3, Corticotropin-releasing factor receptor 2/Corticotropin-releasing factor-binding protein; experiment: activators of CRF receptor 2 with binding protein – uHTS hits, confirmation (AID 602473); type: functional; details: read-out: EC50_Mean
[9] = biological target: T4, Probable nicotinate-nucleotide adenylyltransferase (Staphylococcus aureus (strain N315), UniProt P65502); type: functional, Staphylococcus aureus subsp. aureus N315;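 for IC50 Mean: confirmatory dose-response retesting of NadD inhibitor hits first found in an ultra-high-throughput screen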
[10] = biological target: T4, Probable nicotinate-nucleotide adenylyltransferase; type: functional, Staphylococcus aureus subsp. aureus N315; details: read-out: IC50_Mean
[11] = biological target: T5, Zinc finger protein mex-5 (Caenorhabditis elegans, UniProt Q9XUB2); experiment: MEX-5/TCR-2 RNA interaction inhibitors, dose response, biochemical, C. elegans, fluorescence polarization (AID 1960)
T5 sequence (Q9XUB2 whole entry): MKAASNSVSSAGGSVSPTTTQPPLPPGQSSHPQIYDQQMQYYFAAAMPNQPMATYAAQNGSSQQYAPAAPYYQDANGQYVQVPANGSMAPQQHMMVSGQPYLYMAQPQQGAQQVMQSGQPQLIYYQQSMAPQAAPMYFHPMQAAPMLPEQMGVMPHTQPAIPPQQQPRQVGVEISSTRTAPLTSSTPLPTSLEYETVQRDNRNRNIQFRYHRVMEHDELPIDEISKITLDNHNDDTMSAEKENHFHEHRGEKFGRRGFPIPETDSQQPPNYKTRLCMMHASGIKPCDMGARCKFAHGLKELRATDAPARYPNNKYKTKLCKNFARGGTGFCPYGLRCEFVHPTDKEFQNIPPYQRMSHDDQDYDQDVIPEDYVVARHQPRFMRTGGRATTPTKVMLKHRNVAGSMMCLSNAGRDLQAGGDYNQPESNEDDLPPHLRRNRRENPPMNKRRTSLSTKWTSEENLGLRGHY

[12] = biological target: T6, RNA-binding protein pos-1 (Caenorhabditis elegans, UniProt G5EF15); experiment: inhibitors of POS-1/mex-3 RNA binding, dose response, biochemical, fluorescence polarization (AID 1964);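 note: purified POS-1 fused to maltose binding protein made in E. coli; potency of compounds blocking POS-1 binding to fluorescent RNA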
T6 sequence (G5EF15 whole entry): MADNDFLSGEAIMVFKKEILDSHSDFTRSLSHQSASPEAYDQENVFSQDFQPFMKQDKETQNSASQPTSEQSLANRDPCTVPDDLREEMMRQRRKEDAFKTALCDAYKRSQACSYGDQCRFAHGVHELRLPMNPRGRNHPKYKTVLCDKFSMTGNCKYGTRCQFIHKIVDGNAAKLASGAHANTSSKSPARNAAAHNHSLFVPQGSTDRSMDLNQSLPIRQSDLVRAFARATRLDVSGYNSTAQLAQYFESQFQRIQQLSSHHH

Streptococcus = experiment: Group A Streptococcus viability loss, dose response, counter-screen for streptokinase expression inhibitor project, luminescence, BacTiterGlo (AID 1915); type: functional, organism-based;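 note: potency for reduction of bacterial viability or growth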
[13] = test system: Streptococcus sp. 'group A'; experiment: growth inhibition of control SK(-) GAS strain, dose response, counter-screen for streptokinase expression inhibitor project, luminescence, kanamycin, BacTiterGlo, confirmation (AID 1900); type: functional, organism-based
[14] = biological target: T7, Nuclear receptor subfamily 0 group B member 1 (Homo sapiens, UniProt P51843); type: functional, cell-based;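 note: HEK293T cells transfected with SF-1 and DAX-1 plus StAR promoter luciferase reporter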
T7 sequence (P51843 whole entry): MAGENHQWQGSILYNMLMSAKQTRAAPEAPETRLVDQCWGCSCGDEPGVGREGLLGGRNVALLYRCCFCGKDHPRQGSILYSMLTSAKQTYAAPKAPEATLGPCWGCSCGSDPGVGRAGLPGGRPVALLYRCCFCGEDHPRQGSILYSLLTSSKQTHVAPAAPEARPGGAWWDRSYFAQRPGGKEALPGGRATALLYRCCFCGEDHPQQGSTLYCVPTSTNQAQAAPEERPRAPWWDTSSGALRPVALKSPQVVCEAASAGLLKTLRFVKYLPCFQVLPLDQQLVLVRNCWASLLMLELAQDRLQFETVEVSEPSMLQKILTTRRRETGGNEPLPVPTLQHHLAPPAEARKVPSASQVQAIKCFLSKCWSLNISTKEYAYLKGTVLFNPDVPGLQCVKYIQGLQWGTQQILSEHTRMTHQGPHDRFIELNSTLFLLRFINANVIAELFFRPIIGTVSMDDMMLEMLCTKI

cells [15] = type: functional, cell-based
[16] = biological target: T8, DNA repair and recombination protein RAD54-like (Homo sapiens, UniProt Q92698); experiment: inhibitors of human RAD54 branch migration, confirmation, biochemical, fluorescence, cherry-picked samples, dose series (AID 651657); type: functional
T8 sequence (Q92698 whole entry): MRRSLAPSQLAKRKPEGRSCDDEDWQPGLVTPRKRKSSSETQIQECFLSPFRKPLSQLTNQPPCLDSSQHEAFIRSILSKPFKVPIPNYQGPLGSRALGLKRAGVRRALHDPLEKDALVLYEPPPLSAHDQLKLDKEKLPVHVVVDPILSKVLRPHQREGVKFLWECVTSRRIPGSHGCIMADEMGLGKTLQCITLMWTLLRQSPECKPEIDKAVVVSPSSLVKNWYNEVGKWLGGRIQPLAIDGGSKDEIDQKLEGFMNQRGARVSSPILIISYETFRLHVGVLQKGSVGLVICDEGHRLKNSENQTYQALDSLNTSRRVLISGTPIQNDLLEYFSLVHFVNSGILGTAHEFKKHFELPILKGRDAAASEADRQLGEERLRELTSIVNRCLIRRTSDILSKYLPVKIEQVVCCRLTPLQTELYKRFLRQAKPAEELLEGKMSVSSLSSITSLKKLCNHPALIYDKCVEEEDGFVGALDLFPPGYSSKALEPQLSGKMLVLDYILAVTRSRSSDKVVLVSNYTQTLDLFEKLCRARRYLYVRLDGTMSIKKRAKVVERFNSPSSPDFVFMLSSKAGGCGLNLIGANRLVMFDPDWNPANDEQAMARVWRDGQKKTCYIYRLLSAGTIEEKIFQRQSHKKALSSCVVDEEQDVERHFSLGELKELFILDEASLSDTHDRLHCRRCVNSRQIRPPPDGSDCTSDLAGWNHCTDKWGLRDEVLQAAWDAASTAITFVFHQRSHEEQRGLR

[17] = Luminescence Cell-Based Dose Confirmation HTS to Identify Inhibitors of Platelet Dense Granule Release. [Related pubchem assays: 1663 (Primary HTS), 1678 (Summary of Project)]; type: functional
[18] = biological target: Luciferin 4-monooxygenase (Photinus pyralis, UniProt P08659); experiment: firefly luciferase enzyme inhibitors, dose response, biochemical, luminescence (AID 1891)
Fatty acid synthase [19] = biological target: T9, Fatty acid synthase (Homo sapiens, UniProt P49327); experiment: FAS thioesterase domain inhibitors, dose response, biochemical, kinetic fluorescence intensity (AID 624326); type: functional;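 note: rate of fluorescence rise from hydrolysis of a fluorogenic O-methyl fluorescein ester substrate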
Fatty acid synthase [20] = biological target: T9, Fatty acid synthase; experiment: FAS thioesterase domain inhibitors, dose response, biochemical, endpoint fluorescence intensity, uHTS hits (AID 624327); type: functional;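 note: fluorescence from hydrolysis of an O-methyl fluorescein acyl ester substrate by the enzyme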
INS1 = experiment: beta cell apoptosis inhibitors, cytokine rescue, dose response, luminescence, retest (AID 449756); type: functional, cell-based; details: Rattus norvegicus;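 note: cell death triggered by IL-1 beta plus TNF-alpha plus IFN-gamma mixture; protective hits raise ATP signal compared with cytokine alone wells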

T4 sequence (P65502 whole entry): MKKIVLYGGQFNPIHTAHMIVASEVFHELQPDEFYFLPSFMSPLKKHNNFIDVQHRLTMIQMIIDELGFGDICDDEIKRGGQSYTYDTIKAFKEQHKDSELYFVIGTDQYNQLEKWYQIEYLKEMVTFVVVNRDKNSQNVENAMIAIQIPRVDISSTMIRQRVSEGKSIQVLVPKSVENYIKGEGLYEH
Chain of Beta-galactosidase (Q8VNN2 whole entry): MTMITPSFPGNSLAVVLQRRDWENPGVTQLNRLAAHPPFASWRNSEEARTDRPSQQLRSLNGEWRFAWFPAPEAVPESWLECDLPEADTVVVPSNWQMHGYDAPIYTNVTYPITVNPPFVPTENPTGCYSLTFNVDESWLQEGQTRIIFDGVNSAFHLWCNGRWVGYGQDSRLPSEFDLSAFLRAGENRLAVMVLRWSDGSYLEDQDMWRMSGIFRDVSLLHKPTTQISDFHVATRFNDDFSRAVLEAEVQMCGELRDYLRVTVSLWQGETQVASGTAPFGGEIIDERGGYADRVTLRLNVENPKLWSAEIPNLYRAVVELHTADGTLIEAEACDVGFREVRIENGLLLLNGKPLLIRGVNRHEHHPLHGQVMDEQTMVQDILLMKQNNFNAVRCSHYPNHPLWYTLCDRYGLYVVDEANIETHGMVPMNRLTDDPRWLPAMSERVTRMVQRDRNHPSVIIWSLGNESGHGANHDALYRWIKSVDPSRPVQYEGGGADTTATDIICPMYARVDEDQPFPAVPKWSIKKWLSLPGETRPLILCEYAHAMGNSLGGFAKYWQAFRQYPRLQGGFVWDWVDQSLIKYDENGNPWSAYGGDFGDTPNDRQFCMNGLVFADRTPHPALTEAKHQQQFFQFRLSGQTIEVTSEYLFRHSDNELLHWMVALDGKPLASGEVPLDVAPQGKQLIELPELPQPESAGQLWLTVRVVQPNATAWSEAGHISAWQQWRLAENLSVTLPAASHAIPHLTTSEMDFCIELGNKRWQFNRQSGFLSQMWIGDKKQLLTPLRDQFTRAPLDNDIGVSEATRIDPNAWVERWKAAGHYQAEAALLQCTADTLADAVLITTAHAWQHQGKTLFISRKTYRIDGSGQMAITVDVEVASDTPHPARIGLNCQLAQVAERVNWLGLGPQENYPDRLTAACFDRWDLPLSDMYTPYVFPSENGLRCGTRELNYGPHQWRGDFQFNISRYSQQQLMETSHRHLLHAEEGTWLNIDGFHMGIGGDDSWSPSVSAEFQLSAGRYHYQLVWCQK
T9 sequence (P49327 whole entry, the tested form may be a part): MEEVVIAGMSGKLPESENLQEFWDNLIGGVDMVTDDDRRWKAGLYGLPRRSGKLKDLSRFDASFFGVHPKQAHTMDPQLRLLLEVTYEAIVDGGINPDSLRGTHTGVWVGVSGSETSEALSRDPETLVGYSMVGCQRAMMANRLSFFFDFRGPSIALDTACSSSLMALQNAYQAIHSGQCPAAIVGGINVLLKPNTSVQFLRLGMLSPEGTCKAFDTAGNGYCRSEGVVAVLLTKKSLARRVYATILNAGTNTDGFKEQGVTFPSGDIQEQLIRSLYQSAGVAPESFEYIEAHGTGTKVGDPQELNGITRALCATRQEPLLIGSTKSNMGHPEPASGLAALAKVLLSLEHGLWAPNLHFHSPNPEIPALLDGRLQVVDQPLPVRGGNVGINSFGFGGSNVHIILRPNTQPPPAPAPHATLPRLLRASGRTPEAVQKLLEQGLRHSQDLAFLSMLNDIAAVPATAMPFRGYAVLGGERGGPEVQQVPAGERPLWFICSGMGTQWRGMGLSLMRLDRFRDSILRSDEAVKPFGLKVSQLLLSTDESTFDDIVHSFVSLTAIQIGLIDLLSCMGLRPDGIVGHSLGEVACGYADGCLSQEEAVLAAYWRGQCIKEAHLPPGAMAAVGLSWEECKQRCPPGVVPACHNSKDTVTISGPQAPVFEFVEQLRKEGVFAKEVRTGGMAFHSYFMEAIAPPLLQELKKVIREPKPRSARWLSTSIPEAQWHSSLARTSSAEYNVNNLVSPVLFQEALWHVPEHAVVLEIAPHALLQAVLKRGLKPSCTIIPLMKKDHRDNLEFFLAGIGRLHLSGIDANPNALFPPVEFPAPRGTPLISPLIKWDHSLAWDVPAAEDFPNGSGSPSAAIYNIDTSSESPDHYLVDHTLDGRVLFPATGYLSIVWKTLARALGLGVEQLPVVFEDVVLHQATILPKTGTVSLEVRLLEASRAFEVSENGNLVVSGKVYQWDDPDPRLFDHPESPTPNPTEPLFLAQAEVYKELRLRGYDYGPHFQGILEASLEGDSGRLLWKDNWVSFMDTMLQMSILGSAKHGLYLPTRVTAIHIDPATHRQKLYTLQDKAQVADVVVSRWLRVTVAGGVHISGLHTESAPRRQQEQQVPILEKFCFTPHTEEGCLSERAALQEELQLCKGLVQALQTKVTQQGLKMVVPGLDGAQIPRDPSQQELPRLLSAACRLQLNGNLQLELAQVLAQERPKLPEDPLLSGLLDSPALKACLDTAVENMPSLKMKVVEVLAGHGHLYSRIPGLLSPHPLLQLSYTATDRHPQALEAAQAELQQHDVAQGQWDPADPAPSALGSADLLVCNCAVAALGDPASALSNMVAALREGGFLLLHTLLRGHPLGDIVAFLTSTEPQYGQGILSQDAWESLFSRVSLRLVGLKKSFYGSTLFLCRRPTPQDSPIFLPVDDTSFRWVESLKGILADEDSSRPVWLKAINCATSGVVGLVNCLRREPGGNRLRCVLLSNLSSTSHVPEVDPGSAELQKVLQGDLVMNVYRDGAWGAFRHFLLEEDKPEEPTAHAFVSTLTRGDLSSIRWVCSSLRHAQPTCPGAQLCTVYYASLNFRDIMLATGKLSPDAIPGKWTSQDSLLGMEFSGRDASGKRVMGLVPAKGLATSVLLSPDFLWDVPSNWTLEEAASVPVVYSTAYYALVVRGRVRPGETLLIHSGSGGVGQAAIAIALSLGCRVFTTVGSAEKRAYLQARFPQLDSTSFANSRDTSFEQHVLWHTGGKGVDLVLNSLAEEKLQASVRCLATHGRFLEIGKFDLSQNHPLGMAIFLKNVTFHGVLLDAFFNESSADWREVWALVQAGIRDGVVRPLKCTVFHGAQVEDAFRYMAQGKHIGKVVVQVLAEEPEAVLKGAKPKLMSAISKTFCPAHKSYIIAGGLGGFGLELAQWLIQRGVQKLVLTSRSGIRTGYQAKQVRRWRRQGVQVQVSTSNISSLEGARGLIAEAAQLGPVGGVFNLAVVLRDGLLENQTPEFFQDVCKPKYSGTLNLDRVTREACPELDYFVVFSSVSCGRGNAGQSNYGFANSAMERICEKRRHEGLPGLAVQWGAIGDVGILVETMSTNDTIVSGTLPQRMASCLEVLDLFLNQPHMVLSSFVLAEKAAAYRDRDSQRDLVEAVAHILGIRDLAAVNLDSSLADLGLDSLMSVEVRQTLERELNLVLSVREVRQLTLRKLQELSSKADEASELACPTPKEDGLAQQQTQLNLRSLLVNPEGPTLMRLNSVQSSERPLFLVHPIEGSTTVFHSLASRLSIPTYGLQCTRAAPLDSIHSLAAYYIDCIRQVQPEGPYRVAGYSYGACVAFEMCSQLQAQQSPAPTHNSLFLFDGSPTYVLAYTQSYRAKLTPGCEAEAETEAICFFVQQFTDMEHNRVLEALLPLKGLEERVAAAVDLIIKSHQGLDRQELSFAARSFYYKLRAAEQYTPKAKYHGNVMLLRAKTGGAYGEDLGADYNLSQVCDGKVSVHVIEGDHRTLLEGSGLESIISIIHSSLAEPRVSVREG
Chain of Luciferin 4-monooxygenase (P08659 whole entry, the tested form may be a part): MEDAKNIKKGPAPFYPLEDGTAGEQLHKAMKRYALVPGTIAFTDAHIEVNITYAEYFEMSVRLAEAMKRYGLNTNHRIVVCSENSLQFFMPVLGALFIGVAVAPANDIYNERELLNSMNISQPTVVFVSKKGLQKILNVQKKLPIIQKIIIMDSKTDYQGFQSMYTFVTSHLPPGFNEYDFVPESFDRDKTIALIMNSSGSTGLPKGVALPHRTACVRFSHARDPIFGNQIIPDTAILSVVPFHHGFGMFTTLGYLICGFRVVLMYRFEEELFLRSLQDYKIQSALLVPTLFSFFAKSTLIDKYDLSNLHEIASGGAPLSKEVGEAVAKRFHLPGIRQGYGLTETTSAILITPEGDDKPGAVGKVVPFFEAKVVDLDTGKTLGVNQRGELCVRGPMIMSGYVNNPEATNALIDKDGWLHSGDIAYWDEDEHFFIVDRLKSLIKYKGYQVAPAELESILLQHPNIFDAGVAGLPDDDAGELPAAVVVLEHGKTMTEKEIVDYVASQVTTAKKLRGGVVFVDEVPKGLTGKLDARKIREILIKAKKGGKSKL

## C/C(Cl)=C/Cn1c(SC(C)C)nc2c1c(=O)[nH]c(=O)n2C
[1]
  AC50: > 100 µM (inactive)

## Cc1ccc(Oc2ccc(OCC(=O)Nc3ccncc3)cc2)cc1
[2]
  AC50: 4.76 µM (active)
Cells [3]
  EC50: > 29.9 µM (inactive)
[4]
  AC50: 1.55 µM (active)
[5]
  AC50: < 1 µM (active)
Galanin receptor type 3
  IC50: 0.158 µM (active)
[6]
  IC50: > 80 µM (inactive)

## COc1ccc(N2CCN(C(=O)c3cc(=O)c4cc(C)c(C)cc4o3)CC2)cc1
Beta-galactosidase
  IC50: > 80 µM (inactive)
[7]
  IC50: > 47.1 µM (inactive)
[8]
  EC50: > 53 µM (inactive)

## CCc1nnc(NS(=O)(=O)c2ccc(/N=C/c3c(C)nn(-c4ccc(Cl)cc4)c3O)cc2)s1
[9]
  IC50: 6.87 µM (active)
[10]
  IC50: 25.5 µM (active)

## COc1ccc(/C=C/C(=O)N2CCN(S(=O)(=O)/C=C/c3ccccc3)CC2)cc1OC
Beta-galactosidase
  IC50: > 80 µM (inactive)

## Cc1ccc2sc(NNC(=O)c3cc(=O)c4ccccc4o3)nc2c1C
[11]
  EC50: > 300 µM (inconclusive)
[9]
  IC50: 4.17 µM (active)
[10]
  IC50: 17.7 µM (active)
[12]
  EC50: > 300 µM (not active)
Streptococcus
  EC50: 2.5 µM (active)
[13]
  EC50: 0.744 µM (active)

## S=C(NCCc1ccccc1)Nc1ncccn1
[14]
  IC50: > 67.5 µM (inactive)
Cells [15]
  IC50: > 67.5 µM (inactive)

## Cc1ccc(-c2nc(NCCCO)c3ccccc3n2)cc1
[16]
  AC50: 79.6 µM (active)

## COc1ccc(-n2c(C)cc(C(=O)COC(=O)Cn3cnc4ccccc43)c2C)cc1
Cells [3]
  EC50: > 29.9 µM (inactive)
Galanin receptor type 3
  IC50: 0.762 µM (active)

## O=C(c1cc2cc(F)ccc2[nH]1)N1CCN(Cc2ccc3c(c2)OCO3)CC1
[17]
  EC50: > 112 µM (not active)
Beta-galactosidase
  IC50: > 80 µM (inactive)
[18]
  EC50: > 112 µM (not active)

## Cc1ccc(S(=O)(=O)Nc2ccccc2C(=O)Nc2nc(-c3ccc(F)cc3)cs2)cc1
Fatty acid synthase [19]
  IC50: 10.7 µM (active)
[9]
  IC50: 7.69 µM (active)
Cells [3]
  EC50: > 29.9 µM (inactive)
[10]
  IC50: 62.2 µM (active)
Galanin receptor type 3
  IC50: 1.44 µM (active)
Fatty acid synthase [20]
  IC50: 9.65 µM (active)
INS1
  AC50: 2.97 µM (active)

From ChEMBL document CHEMBL1201862, “PubChem BioAssay data set” (2004)
